According to PubChem BioAssay AID330 (DTP/NCI, 2004):
Several values for one entry are separate records, joined by “and”; a condition that tells them apart may be missing. Identical values can stand only once. Inconclusive results and toxic doses are left out.

Tested on: P388 leukemia ip, CD2F1 mice, survival T/C
Test: NCI In Vivo Anticancer Drug Screen. Data for tumor model P388 Leukemia (intraperitoneal) in CD2F1 (CDF1) mice
Settings: endpoint: median survival time, higher = longer survival
Outline: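 Mice carrying the transplanted tumor received test compound or vehicle. Survival was recorded in each group, and the value is the treated-group measurement divided by that of the vehicle-treated control group.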

[1] = dose: 25.0 mg/kg/injection, schedule: Q01DX009 (ip), vehicle: saline with Tween-80
[2] = dose: 50.0 mg/kg/injection, schedule: Q01DX005 (ip), vehicle: Klucel (hydroxypropylcellulose) (HPC)
[3] = dose: 100.0 mg/kg/injection, schedule: Q01DX005 (ip), vehicle: Klucel (hydroxypropylcellulose) (HPC)
[4] = dose: 200.0 mg/kg/injection, schedule: Q01DX005 (ip), vehicle: Klucel (hydroxypropylcellulose) (HPC)
[5] = dose: 50.0 mg/kg/injection, schedule: Q01DX009 (ip), vehicle: saline with Tween-80
[6] = dose: 100.0 mg/kg/injection, schedule: Q01DX009 (ip), vehicle: saline with Tween-80
[7] = dose: 200.0 mg/kg/injection, schedule: Q01DX009 (ip), vehicle: saline with Tween-80

## O=[N+]([O-])c1cc(F)ccc1O
dose: 6.25 mg/kg/injection, schedule: Q01DX009 (ip), vehicle: saline with Tween-80
  T/C: 95 % of control
dose: 12.5 mg/kg/injection, schedule: Q01DX009 (ip), vehicle: saline with Tween-80
  T/C: 100 % of control
[1]
  T/C: 104 % of control

## CC(C)(C)n1nnnc1N
dose: 12.5 mg/kg/injection, schedule: Q01DX009 (ip), vehicle: Klucel (hydroxypropylcellulose) (HPC)
  T/C: 100 % of control
dose: 25.0 mg/kg/injection, schedule: Q01DX009 (ip), vehicle: Klucel (hydroxypropylcellulose) (HPC)
  T/C: 94 % of control
dose: 50.0 mg/kg/injection, schedule: Q01DX009 (ip), vehicle: Klucel (hydroxypropylcellulose) (HPC)
  T/C: 105 % of control and 112 % of control
dose: 200.0 mg/kg/injection, schedule: Q01DX009 (ip), vehicle: Klucel (hydroxypropylcellulose) (HPC)
  T/C: 103 % of control

## NC(=O)c1nsc(-c2ccc([N+](=O)[O-])cc2)c1N
[2]
  T/C: 101 % of control
[3]
  T/C: 96 % of control
[4]
  T/C: 92 % of control

## CCC1(O)C(=O)OCc2c1cc1n(c2=O)Cc2cc3ccccc3nc2-1 (configuration not stated)
dose: 2.0 mg/kg/injection, schedule: Q04DX003 (ip), vehicle: other
  T/C: 150 % of control and 153 % of control
dose: 4.0 mg/kg/injection, schedule: Q04DX003 (ip), vehicle: other
  T/C: 167 % of control and 178 % of control
dose: 8.0 mg/kg/injection, schedule: Q04DX003 (ip), vehicle: other
  T/C: 222 % of control and 229 % of control
dose: 16.0 mg/kg/injection, schedule: Q04DX003 (ip), vehicle: other
  T/C: 118 % of control

## NC(N)=NCC[C@H](N)C(=O)O
dose: 50.0 mg/kg/injection, schedule: Q01DX005 (ip), vehicle: saline
  T/C: 104 % of control
dose: 100.0 mg/kg/injection, schedule: Q01DX005 (ip), vehicle: saline
  T/C: 104 % of control
dose: 200.0 mg/kg/injection, schedule: Q01DX005 (ip), vehicle: saline
  T/C: 97 % of control

## CCCCC(=O)N/N=C/c1ccc([N+](=O)[O-])s1
[5]
  T/C: 95 % of control
[6]
  T/C: 99 % of control
[7]
  T/C: 101 % of control

## S=P(Oc1cc(Cl)cc(Cl)c1)(Oc1cc(Cl)cc(Cl)c1)Oc1cc(Cl)cc(Cl)c1
[2]
  T/C: 97 % of control
[3]
  T/C: 100 % of control
[4]
  T/C: 100 % of control

## COc1ccc2c(c1)CSC(c1ccccc1)C2O (configuration not stated)
[5]
  T/C: 98 % of control
[6]
  T/C: 93 % of control
[7]
  T/C: 99 % of control

## O=C(O)Cc1noc2ccccc12
dose: 25.0 mg/kg/injection, schedule: Q04DX003 (ip), vehicle: Klucel (hydroxypropylcellulose) (HPC)
  T/C: 92 % of control
dose: 50.0 mg/kg/injection, schedule: Q04DX003 (ip), vehicle: Klucel (hydroxypropylcellulose) (HPC)
  T/C: 91 % of control
dose: 100.0 mg/kg/injection, schedule: Q04DX003 (ip), vehicle: Klucel (hydroxypropylcellulose) (HPC)
  T/C: 91 % of control
dose: 200.0 mg/kg/injection, schedule: Q04DX003 (ip), vehicle: Klucel (hydroxypropylcellulose) (HPC)
  T/C: 90 % of control

## O=C(Nc1cccc(S(=O)(=O)F)c1)Oc1ccc([N+](=O)[O-])cc1
dose: 60.0 mg/kg/injection, schedule: Q01DX005 (ip), vehicle: saline with Tween-80
  T/C: 113 % of control
dose: 120.0 mg/kg/injection, schedule: Q01DX005 (ip), vehicle: saline with Tween-80
  T/C: 111 % of control
dose: 240.0 mg/kg/injection, schedule: Q01DX005 (ip), vehicle: saline with Tween-80
  T/C: 93 % of control

## CN(C)C1C(O)C2Oc3c(cc(O)c4c3C(=O)c3cc5c(c(O)c3C4=O)C(N3CCCC3)CC(C)(O)C5)C(C)(O2)C1O (configuration not stated)
dose: 3.12 mg/kg/injection, schedule: Q01DX009 (ip), vehicle: other
  T/C: 113 % of control
dose: 6.25 mg/kg/injection, schedule: Q01DX009 (ip), vehicle: other
  T/C: 116 % of control
dose: 12.5 mg/kg/injection, schedule: Q01DX009 (ip), vehicle: other
  T/C: 122 % of control

## CNC(=O)OCc1c(Cl)nc2sccn12
dose: 100.0 mg/kg/injection, schedule: Q01DX001 (ip), vehicle: Klucel (hydroxypropylcellulose) (HPC)
  T/C: 109 % of control
dose: 200.0 mg/kg/injection, schedule: Q01DX001 (ip), vehicle: Klucel (hydroxypropylcellulose) (HPC)
  T/C: 100 % of control
dose: 400.0 mg/kg/injection, schedule: Q01DX001 (ip), vehicle: Klucel (hydroxypropylcellulose) (HPC)
  T/C: 100 % of control

## O=S(=O)(/C=C/c1cccnc1)/C=C/c1cccnc1
[1]
  T/C: 106 % of control
[5]
  T/C: 100 % of control

## c1ccc2c(c1)C(=NCCCN1CCCCCC1)c1cccn1-2
dose: 50.0 mg/kg/injection, schedule: Q01DX005 (ip), vehicle: saline with Tween-80
  T/C: 100 % of control
dose: 100.0 mg/kg/injection, schedule: Q01DX005 (ip), vehicle: saline with Tween-80
  T/C: 100 % of control
dose: 200.0 mg/kg/injection, schedule: Q01DX005 (ip), vehicle: saline with Tween-80
  T/C: 100 % of control

## NC(C(=O)O)C(CC(=O)O)c1ccncc1 (configuration not stated)
dose: 100.0 mg/kg/injection, schedule: Q04DX003 (ip), vehicle: saline with Tween-80
  T/C: 96 % of control
dose: 200.0 mg/kg/injection, schedule: Q04DX003 (ip), vehicle: saline with Tween-80
  T/C: 89 % of control
dose: 400.0 mg/kg/injection, schedule: Q04DX003 (ip), vehicle: saline with Tween-80
  T/C: 98 % of control
